The source of these data is article PMC10872270 (Cell reports, 2023).

In experiment [1] the test system is MDA-MB-453-AR-V7 cells. Briefly: SRB proliferation assay in growth medium. The experiment is classed as cell-based. Particulars: seven days.
Experiment [2] concerns the target T1, AR (Homo sapiens, UniProt P10275).
T1 sequence (P10275 1-920): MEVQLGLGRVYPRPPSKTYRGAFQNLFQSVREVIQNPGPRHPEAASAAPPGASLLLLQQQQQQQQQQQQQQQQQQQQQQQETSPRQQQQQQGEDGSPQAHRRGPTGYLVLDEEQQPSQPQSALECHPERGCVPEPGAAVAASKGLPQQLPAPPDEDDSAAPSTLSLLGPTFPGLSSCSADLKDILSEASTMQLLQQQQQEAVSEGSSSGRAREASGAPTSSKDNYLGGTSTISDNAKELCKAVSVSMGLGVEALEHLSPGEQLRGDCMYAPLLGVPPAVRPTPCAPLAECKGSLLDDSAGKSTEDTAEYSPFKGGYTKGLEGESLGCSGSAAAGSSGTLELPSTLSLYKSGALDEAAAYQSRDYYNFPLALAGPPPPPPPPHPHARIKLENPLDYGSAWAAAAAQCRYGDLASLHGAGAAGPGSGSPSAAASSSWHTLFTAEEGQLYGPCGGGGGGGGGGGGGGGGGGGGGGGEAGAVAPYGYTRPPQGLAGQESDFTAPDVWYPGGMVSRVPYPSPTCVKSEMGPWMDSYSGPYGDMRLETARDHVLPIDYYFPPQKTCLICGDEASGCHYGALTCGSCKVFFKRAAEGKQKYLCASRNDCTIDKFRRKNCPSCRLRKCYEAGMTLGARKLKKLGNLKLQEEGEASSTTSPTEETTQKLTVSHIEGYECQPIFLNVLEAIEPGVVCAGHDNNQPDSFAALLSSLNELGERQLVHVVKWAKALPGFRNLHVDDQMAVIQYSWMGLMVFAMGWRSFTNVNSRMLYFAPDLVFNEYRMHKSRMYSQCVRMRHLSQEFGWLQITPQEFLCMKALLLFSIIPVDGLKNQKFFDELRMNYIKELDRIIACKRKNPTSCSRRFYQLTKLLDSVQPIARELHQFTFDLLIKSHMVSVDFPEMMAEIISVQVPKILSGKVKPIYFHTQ
Particulars: HEK-293 cells.

Experiment [3] has as its system FKBP5. Briefly: R1881-induced FKBP5 expression in MDA-MB-453 cells. Particulars: 0.1 nM R1881, 3 μM, 24 hours.
Experiment [4] deals with MDA-MB-453 cells. Briefly: SRB proliferation assay in growth medium. The experiment is classed as cell-based. Particulars: parental MDA-MB-453 cells, seven days.
The test system of experiment [5] is STAT1 phosphorylation. Briefly: Interferon α-induced STAT1 phosphorylation in MDA-MB-453 cells. The format is cell-based. Particulars: 3 μM pretreated for 24 hours, interferon α 30 minutes.
The test system of experiment [6] is AR-target genes FKBP5, STEAP4, and TMPRSS2. Briefly: AR-target gene expression by real-time PCR in MDA-MB-453 cells. Particulars: 16–20 hours. The experiment is classed as cell-based.
Experiment [7] has as its system UT-1355 PDX. Briefly: UT-1355 TNBC PDX orthotopic xenograft. The experiment is classed as in vivo. Particulars: female NSG mice; expresses AR-FL and AR-V7.
Experiment [8] concerns MDA-MB-453 xenograft. Particulars: female mice supplemented with DHT; cited from earlier work.
In experiment [9] the test system is patients expressing AR-V7. Particulars: clinical trial; alone or in combination with PI3K inhibitor taselisib; cited from earlier work.
The subject of experiment [10] is MDA-MB-453 tumors. Briefly: RNA-seq of MDA-MB-453 xenograft tumors. The experiment is classed as in vivo, mice. Particulars: MDA-MB-453 xenograft tumors vs vehicle.

For the molecule `N#CC[C@H](C1CCCC1)n1cc(-c2ncnc3[nH]ccc23)cn1` [ruxolitinib], the cell proliferation result in experiment [1] and in experiment [4] was “comparable inhibition” throughout. In experiment [2], the “R1881-dependent AR transactivation in the absence of STAT1” value is listed as “no effect”. The “STAT1-dependent increase in AR transactivation” value in experiment [2] (0.1 μg STAT1) is “inhibited”. For the same molecule, in [3], the “R1881-induced expression of FKBP5” value is listed as “completely inhibited”. Besides, the “interferon-α-induced phosphorylation of STAT1” value in [5] was “completely inhibited”.

With `CNC(=O)c1ccc(N2C(=S)N(c3ccc(C#N)c(C(F)(F)F)c3)C(=O)C2(C)C)cc1F` [enzalutamide], in [6], the “R1881-stimulated expression of FKBP5” value is recorded as “inhibited”, the “R1881-stimulated expression of STEAP4” value is reported as “inhibited” and the “R1881-stimulated expression of TMPRSS2” value is given as “inhibited”. Further, the “growth of UT-1355 PDX” value in [7] is “modestly effective”. Further, in [8], the MDA-MB-453 xenograft growth result is recorded as “inhibits”. In addition, in [9], the “effect in patients expressing AR-V7” value is listed as “failed to have an effect”. The “differentially expressed genes in treated tumors” value in experiment [10] is “eight”.
